# In US7951838B2, “Substituted spirocyclic chromanamine compounds as Beta-Secretase modulators and methods of use” (Amgen Inc., priority 2007, dated 2011):
# Key:
# BACE [1] = target: T1, BACE (Homo sapiens, UniProt P56817); assay: In vitro enzymatic BACE FRET assay (Enzyme Assay); format: biochemical; conditions: pH 4.2, enzyme 0.2 nM, FRET substrate 50 nM
# T1 construct: Cells stably expressing Amyloid Precursor Protein (APP) were plated at a density of 40K cells/well in 96 well plates; endogenous in cells
# Procedure: In Vitro Enzymatic BACE FRET (Fluorescence Resonance Energy Transfer) Assay (Enzyme Assay)
# Assay buffer is 0.05 M acetate, pH 4.2, 10% DMSO final, 100 uM genapol (which is a nonionic detergent, below it's Critical Micelle Concentration). Enzyme (0.2 nM) is pre-incubated for one hour with inhibitors added in 1 uL of DMSO. Then the assay is started by the addition of FRET substrate (50 nM) and incubated for one hour. The FRET assay is terminated with by addition of Tris buffer, which raises the pH to neutrality, and the fluorescence is determined The FRET substrate is a peptide with commercially available fluorophore and quencher, on opposite sides of the BACE cleavage site. Proteolytic cleavage of the FRET substrate releases quenching of fluorescence (excitation 488 nm and […]).
# BACE [2] = target: T1, BACE; assay: BACE cell-based assay (Cell Assay), inhibition of Aβ40 by sandwich ELISA; conditions: Aβ40 in conditioned medium of cells stably expressing APP, 24 h incubation
# Procedure: BACE Cell-Based Assay (Cell Assay)
# The cell-based assay measures inhibition or reduction of Aβ40 in conditioned medium of test compound treated cells expressing amyloid precursor protein.
# Cells stably expressing Amyloid Precursor Protein (APP) were plated at a density of 40K cells/well in 96 well plates (Costar). The cells were cultivated for 24 hours at 37° C. and 5% CO2 in DMEM supplemented with 10% FBS. The test compounds were then added to cells in 10-point dose response concentrations with the starting concentration being either 100 μM or 10 μM. The compounds were diluted from stock solutions in DMSO and the final DMSO concentration of the test compounds on cells was 0.1%. After 24 h of incubation with the test compounds the supernatant conditioned media was collected and the Aβ40 levels were determined using a sandwich ELISA. The IC50 of the compound was calculated from the percent of control or percent inhibition of Aβ40 as a function of the concentration of the test compound.
# The sandwich ELISA to detect Aβ40 was performed in 96 well microtiter plates, which were pre-treated with goat anti-rabbit IgG (Pierce). The capture and detecting antibody pair that were used to detect Aβ40 from cell supernatants were affinity purified pAb40 (Biosource) and biotinylated 6E10 (Signet Labs Inc.), respectively. The optimal concentration for the pAb40 antibody was 3 μg/ml in Superblock/TBS (Pierce) that was supplemented with 0.05% Tween 20 (Sigma). Optimal concentration for the detection antibody 6E10-biotinylated was 0.5 μg/ml in Superblock/TBS (Pierce) that had been supplemented with 2% normal goat serum and 2% normal mouse serum.
# Cellular supernatants were incubated with the capture antibody for 3 h at 4° C., followed by 3 wash steps in TBS-tween (0.05%). The detecting antibody incubation was for 2 h at 4° C., again followed by the wash steps as described previously. The final readout of the ELISA is Time-Resolved Fluorescence (counts per minute) using Delfia reagents Streptavidin-Europium and Enhancement solutions (Perkin Elmer) and the Victor 2 multilabel counter (Perkin Elmer).
# T1 sequence (P56817 46-501): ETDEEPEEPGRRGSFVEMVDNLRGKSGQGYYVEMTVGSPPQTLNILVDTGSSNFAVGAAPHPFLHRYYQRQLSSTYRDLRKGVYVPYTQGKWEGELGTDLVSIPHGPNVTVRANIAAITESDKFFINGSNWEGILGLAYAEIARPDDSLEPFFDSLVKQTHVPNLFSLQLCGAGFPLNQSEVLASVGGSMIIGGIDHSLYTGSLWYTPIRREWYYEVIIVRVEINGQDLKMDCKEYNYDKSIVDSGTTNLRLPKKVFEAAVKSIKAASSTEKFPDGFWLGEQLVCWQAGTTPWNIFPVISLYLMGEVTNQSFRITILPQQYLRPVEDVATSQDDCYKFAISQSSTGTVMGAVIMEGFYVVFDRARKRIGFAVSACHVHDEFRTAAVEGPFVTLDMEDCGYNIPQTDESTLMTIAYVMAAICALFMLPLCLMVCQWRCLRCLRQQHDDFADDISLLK
SMILES,IC50 (BACE [1]),IC50 (BACE [2])
"O[C@H](CN[C@H]1CC2(CCC2)Oc2ccc(Br)cc21)[C@H](Cc1ccccc1)Nc1nccn2cnnc12 [Example 22, (2R,3S)-1-(((4S)-6-bromo-3,4-dihydrospiro[chromene-2,1′-cyclobutan]-4-yl)amino)-4-phenyl-3-([1,2,4]triazolo[4,3-a]pyrazin-8-ylamino)-2-butanol]",10 to 25 µM,5 to 10 µM
"CC(C)(C)Cc1cnc2c(c1)[C@@H](NC[C@@H](O)[C@H](Cc1cc(F)cc(F)c1)Nc1ccccc1F)CC1(CCC1)O2 [Example 26, (2R,3S)-4-(3,5-difluorophenyl)-1-(((4′S)-6′-(2,2-dimethylpropyl)-3′,4′-dihydrospiro[cyclobutane-1,2′-pyrano[2,3-b]pyridin]-4′-yl)amino)-3-((2-fluorophenyl)amino)-2-butanol]",1 to 5 µM,10 to 25 µM
"CC(C)(C)Cc1cnc2c(c1)[C@@H](NC[C@@H](O)[C@H](Cc1ccc(F)cc1)Nc1ncnc3sccc13)CC1(CCC1)O2 [Example 35, (2R,3S)-1-(((4′S)-6′-(2,2-dimethylpropyl)-3′,4′-dihydrospiro[cyclobutane-1,2′-pyrano[2,3-b]pyridin]-4′-yl)amino)-4-(4-fluorophenyl)-3-(thieno[2,3-d]pyrimidin-4-ylamino)-2-butanol]",10 to 25 µM,0.1 to 1 µM
"CC(C)(C)Cc1cnc2c(c1)[C@@H](NC[C@@H](O)[C@H](Cc1ccc(F)cc1)Nc1cc(Cl)ncn1)CC1(CCC1)O2 [Example 28, (2R,3S)-3-((6-chloro-4-pyrimidinyl)amino)-1-(((4′S)-6′-(2,2-dimethylpropyl)-3′,4′-dihydrospiro[cyclobutane-1,2′-pyrano[2,3-b]pyridin]-4′-yl)amino)-4-(4-fluorophenyl)-2-butanol]",1 to 5 µM,10 to 25 µM
"CCc1ccc2c(c1)[C@@H](NC[C@@H](O)[C@H](Cc1cccc(C#N)c1)Nc1ccccc1F)CC1(CCC1)O2 [Example 27, 3-((2S,3R)-4-(((4S)-6-ethyl-3,4-dihydrospiro[chromene-2,1′-cyclobutan]-4-yl)amino)-2-((2-fluorophenyl)amino)-3-hydroxybutyl)benzonitrile]",1 to 5 µM,0.1 to 1 µM
"CCc1ccc2c(c1)[C@@H](NC[C@@H](O)[C@H](Cc1ccccc1)Nc1nccc(C(F)(F)F)n1)CC1(CCC1)O2 [Example 33, (2R,3S)-1-((S)-6-ethyl-2,2-spirocyclobutyl-chroman-4-ylamino)-4-phenyl-3-(4-(trifluoromethyl)pyrimidin-2-ylamino)butan-2-ol]",10 to 25 µM,10 to 25 µM
"CCc1ccc2c(c1)[C@@H](NC[C@@H](O)[C@H](Cc1ccccc1)Nc1ccccc1F)CC1(CCC1)O2 [Example 31, (2R,3S)-1-(((4S)-6-ethyl-3,4-dihydrospiro[chromene-2,1′-cyclobutan]-4-yl)amino)-3-((2-fluorophenyl)amino)-4-phenyl-2-butanol]",5 to 10 µM,10 to 25 µM
"CC(C)(C)Cc1cnc2c(c1)[C@@H](NC[C@@H](O)[C@H](Cc1cc(F)cc(F)c1)Nc1nccn3cnnc13)CC1(CCC1)O2 [Example 21, (2R,3S)-4-(3,5-difluorophenyl)-1-(((4′S)-6′-(2,2-dimethylpropyl)-3′,4′-dihydrospiro[cyclobutane-1,2′-pyrano[2,3-b]pyridin]-4′-yl)amino)-3-([1,2,4]triazolo[4,3-a]pyrazin-8-ylamino)-2-butanol]",0.1 to 1 µM,< 0.1 µM
"CC(C)(C)Cc1cnc2c(c1)[C@@H](NC[C@@H](O)[C@H](Cc1cc(F)cc(F)c1)Nc1ncccn1)CC1(CCC1)O2 [Example 25, (2R,3S)-4-(3,5-difluorophenyl)-1-(((4′S)-6′-(2,2-dimethylpropyl)-3′,4′-dihydrospiro[cyclobutane-1,2′-pyrano[2,3-b]pyridin]-4′-yl)amino)-3-(2-pyrimidinylamino)-2-butanol]",0.1 to 1 µM,1 to 5 µM
"CC(C)(C)Cc1cnc2c(c1)[C@@H](NC[C@@H](O)[C@H](Cc1cc(F)cc(F)c1)Nc1ccnc(Cl)n1)CC1(CCC1)O2 [Example 24, (2R,3S)-3-((2-chloro-4-pyrimidinyl)amino)-4-(3,5-difluorophenyl)-1-(((4′S)-6′-(2,2-dimethylpropyl)-3′,4′-dihydrospiro[cyclobutane-1,2′-pyrano[2,3-b]pyridin]-4′-yl)amino)-2-butanol]",< 0.1 µM,0.1 to 1 µM
"CCc1ccc2c(c1)[C@@H](NC[C@@H](O)[C@H](Cc1ccccc1)Nc1nc3ccccc3o1)CC1(CCC1)O2 [Example 36, (2R,3S)-3-(1,3-benzoxazol-2-ylamino)-1-(((4S)-6-ethyl-3,4-dihydrospiro[chromene-2,1′-cyclobutan]-4-yl)amino)-4-phenyl-2-butanol]",10 to 25 µM,1 to 5 µM
"CCc1ccc2c(c1)[C@@H](NC[C@@H](O)[C@H](Cc1ccccc1)Nc1ccccc1F)CC1(CCCC1)O2 [Example 32, (2R,3S)-1-(((4S)-6-ethyl-3,4-dihydrospiro[chromene-2,1′-cyclopentan]-4-yl)amino)-3-((2-fluorophenyl)amino)-4-phenyl-2-butanol]",5 to 10 µM,10 to 25 µM
"CC(C)(C)Cc1cnc2c(c1)[C@@H](NC[C@@H](O)[C@H](Cc1ccc(F)cc1)Nc1ncnc3ccsc13)CC1(CCC1)O2 [Example 30, (2R,3S)-1-(((4′S)-6′-(2,2-dimethylpropyl)-3′,4′-dihydrospiro[cyclobutane-1,2′-pyrano[2,3-b]pyridin]-4′-yl)amino)-4-(4-fluorophenyl)-3-(thieno[3,2-d]pyrimidin-4-ylamino)-2-butanol]",5 to 10 µM,10 to 25 µM

# More lines, now with the values ahead:
IC50 (BACE [1]),IC50 (BACE [2]),SMILES
< 0.1 µM,0.1 to 1 µM,"CCOc1c(N[C@@H](Cc2cccc(F)c2)[C@H](O)CN[C@H]2CC3(CCC3)Oc3ncc(CC(C)(C)C)cc32)c(=O)c1=O [Example 45, 3-(((1S,2R)-3-(((4′S)-6′-(2,2-dimethylpropyl)-3′,4′-dihydrospiro[cyclobutane-1,2′-pyrano[2,3-b]pyridin]-4′-yl)amino)-1-((3-fluorophenyl)methyl)-2-hydroxypropyl)amino)-4-(ethyloxy)-3-cyclobutene-1,2-dione]"
10 to 25 µM,10 to 25 µM,"CC(C)(C)Cc1cnc2c(c1)[C@@H](NC[C@H](O)[C@H](Cc1ccccc1)Nc1ccccc1F)CC1(CCC1)O2 [Example 41, (2S,3S)-1-(((4′S)-6′-(2,2-dimethylpropyl)-3′,4′-dihydrospiro[cyclobutane-1,2′-pyrano[2,3-b]pyridin]-4′-yl)amino)-3-((2-fluorophenyl)amino)-4-phenyl-2-butanol]"
–,10 to 25 µM,"CCc1ccc2c(c1)[C@@H](NC[C@@H](O)[C@H](Cc1ccccc1)Nc1cnccn1)CC1(CCCC1)O2 [Example 40, (2R,3S)-1-(((4S)-6-ethyl-3,4-dihydrospiro[chromene-2,1′-cyclopentan]-4-yl)amino)-4-phenyl-3-(2-pyrazinylamino)-2-butanol]"
–,1 to 5 µM,"CCc1ccc2c(c1)[C@@H](NC[C@@H](O)[C@H](Cc1ccccc1)Nc1ccncc1)CC1(CCC1)O2 [Example 44, (2R,3S)-1-(((4S)-6-ethyl-3,4-dihydrospiro[chromene-2,1′-cyclobutan]-4-yl)amino)-4-phenyl-3-(4-pyridinylamino)-2-butanol]"
10 to 25 µM,10 to 25 µM,"CCc1ccc2c(c1)[C@@H](NC[C@@H](O)[C@H](Cc1ccccc1)Nc1cccnc1)CC1(CCC1)O2 [Example 43, (2R,3S)-1-(((4S)-6-ethyl-3,4-dihydrospiro[chromene-2,1′-cyclobutan]-4-yl)amino)-4-phenyl-3-(3-pyridinylamino)-2-butanol]"
10 to 25 µM,10 to 25 µM,"CCc1ccc2c(c1)[C@@H](NC[C@@H](O)[C@H](Cc1ccccc1)Nc1ncccn1)CC1(CCC1)O2 [Example 38, (2R,3S)-1-((S)-6-ethyl-2,2-spirocyclobutyl-chroman-4-ylamino)-4-phenyl-3-(pyrimidin-2-ylamino)butan-2-ol]"
10 to 25 µM,–,"CCc1ccc2c(c1)[C@@H](NC[C@@H](O)[C@H](Cc1ccccc1)Nc1nc3ccccc3s1)CC1(CCC1)O2 [Example 42, (2R,3S)-3-(1,3-benzothiazol-2-ylamino)-1-(((4S)-6-ethyl-3,4-dihydrospiro[chromene-2,1′-cyclobutan]-4-yl)amino)-4-phenyl-2-butanol]"
